From patent publication US20120029048A1, “PHENYLALKYL N-HYDROXYUREAS FOR TREATING LEUKOTRIENE RELATED PATHOLOGIES” (VIA Pharmaceuticals, Inc., priority 2010, published 2012)

What was measured:
leukotriene B4 (LTB4) = assay: Ex vivo LTB4 in blood by ELISA, Phase 2 ACS study; parameters: species or system human; conditions: trough drug levels
Method: (§1) In this randomized, placebo-controlled study, 191 patients were randomized 3 weeks after an acute coronary syndrome (ACS) to receive 25, 50, or 100 mg N-[3-[5-[(4-fluorophenyl)methyl]-2-thienyl]-1-methyl-2-propynyl]-N-hydroxyurea or placebo qd for 12 weeks. Baseline assessments were performed at the start of treatment and these baseline results were compared with repeat assessments during various follow-up periods during the treatment study. A subset of 93 patients who had undergone a Multidetector (64 slice coronary) Computerized Tomography (MDCT) examination at baseline continued on study medication for a total of 24 weeks and underwent a repeat scan. Patients received a single daily oral dose of 25 mg, 50 mg, or 100 mg of N-[3-[5-[(4-fluorophenyl)methyl]-2-thienyl]-1-methyl-2-propynyl]-N-hydroxyurea or matching placebo by administering 2 capsules as prepared in Example 3 for 12 weeks or 24 weeks. Blood samples for measurement of ex vivo leukotriene B4 (LTB4) and high sensitivity C reactive protein (hsCRP), and urine samples for measurement of urinary leukotriene E4 (LTE4) levels were collected pre-dose on weeks 2, 6 and 12. Blood samples were assayed for ex vivo LTB4 by enzyme-linked immunosorbent assay, and for hsCRP by an immunoturbidimetric method. Urine samples were assayed for LTE4 using Liquid Chromatography with Tandem Mass Spectrometry (LC/MS/MS).

LTB4 = assay: Ex vivo LTB4 in blood by ELISA, Phase 2 CEA study; parameters: species or system human; conditions: 100 mg qd oral 12 weeks, CEA patients, compared with placebo (p<0.0001)
Method: (§2) In this randomized, double blind, placebo-controlled study, 50 patients with significant carotid artery stenosis (60-90%) were treated once daily for 12 weeks with orally administered 100 mg N-[3-[5-[(4-fluorophenyl)methyl]-2-thienyl]-1-methyl-2-propynyl]-N-hydroxyurea or placebo prior to undergoing CEA, at which time endarterectomy tissue (plaque) was collected and stored for subsequent tissue analysis. Baseline assessments are performed at the start of treatment and these baseline results were compared with repeat assessments during various follow-up periods of treatment. The treatment was conducted for twelve weeks at which time these baseline assessments were performed and compared. Patients received a total single daily oral dose of 100 mg of N-[3-[5-[(4-fluorophenyl)methyl]-2-thienyl]-1-methyl-2-propynyl]-N-hydroxyurea or matching placebo by administering 2 capsules as prepared in Example 3 for 12 weeks. Blood samples for measurement of ex vivo LTB4 and hsCRP, and urine samples for measurement of urinary LTE4 levels were collected pre-dose on weeks 2, 6 and 12. […] LTB4, LTE4 and hsCRP biomarker data were assessed using change from baseline comparisons and an ANCOVA was used to compare the treatment groups where the covariate was the baseline value of the outcome measure. […]

[1] = test system: inflammatory genes IL-6, IL 8, IL-10, MMP9, I-kappa-B, osteopontin; assay: Inflammatory gene expression in carotid plaques (TaqMan), Phase 2 CEA study; assay type: in vivo, human; conditions: rupture-prone plaque subtypes, 100 mg qd 12 weeks
Method: (§3) In this randomized, double blind, placebo-controlled study, 50 patients with significant carotid artery stenosis (60-90%) were treated once daily for 12 weeks with orally administered 100 mg N-[3-[5-[(4-fluorophenyl)methyl]-2-thienyl]-1-methyl-2-propynyl]-N-hydroxyurea or placebo prior to undergoing CEA, at which time endarterectomy tissue (plaque) was collected and stored for subsequent tissue analysis. Baseline assessments are performed at the start of treatment and these baseline results were compared with repeat assessments during various follow-up periods of treatment. The treatment was conducted for twelve weeks at which time these baseline assessments were performed and compared.
(§4) At the end of 12 weeks treatment with 100 mg of N-[3-[5-[(4-fluorophenyl)methyl]-2-thienyl]-1-methyl-2-propynyl]-N-hydroxyurea, patients underwent CEA, at which time endarterectomy tissue (plaque) was collected, fixed in 10% formalin and paraffin blocks, and stored for subsequent tissue analysis. […] A portion of each of the plaques was also analyzed for inflammatory gene expression after isolation of total RNA and reverse transcription using a TaqMan® High Capacity cDNA assay.
(§5) LTB4, LTE4 and hsCRP biomarker data were assessed using change from baseline comparisons and an ANCOVA was used to compare the treatment groups where the covariate was the baseline value of the outcome measure. […]

LTE4 = assay: Urinary LTE4 by LC/MS/MS, Phase 2 CEA study; assay type: in vivo, human; conditions: 100 mg qd oral 12 weeks, CEA patients, compared with placebo (p<0.01)
Method: as §2

[2] = test system: carotid plaques with rupture-prone histological subtypes; assay: Relative necrotic core thickness in carotid plaques, Phase 2 CEA study; assay type: in vivo, human; conditions: rupture-prone plaque subtypes, 100 mg qd 12 weeks, compared with placebo (p<0.02)
Method: as §3, §4, §5

hsCRP = hsCRP in blood by immunoturbidimetric method, Phase 2 CEA study; assay type: in vivo, human; conditions: 100 mg qd oral 12 weeks, CEA patients, compared with placebo (p<0.01)
Method: as §2

leukotriene E4 (LTE4) = assay: Urinary LTE4 by LC/MS/MS, Phase 2 ACS study; assay type: in vivo, human; conditions: all doses (25, 50, 100 mg qd), ACS patients
Method: as §1

[3] = test system: high sensitivity C reactive protein (hsCRP); assay: hsCRP in blood by immunoturbidimetric method, Phase 2 ACS study; assay type: in vivo, human; conditions: for hsCRP change from baseline, LSMEANS geometric mean (%) / hsCRP change from baseline, Median (25-75): 12 weeks
Method: as §1

non-calcified plaque = assay: Serial MDCT coronary plaque imaging, Phase 2 ACS study, 24-week substudy; assay type: in vivo, human; conditions: all three doses, 24 weeks, compared with placebo
Method: In this randomized, placebo-controlled study, 191 patients were randomized 3 weeks after an acute coronary syndrome (ACS) to receive 25, 50, or 100 mg N-[3-[5-[(4-fluorophenyl)methyl]-2-thienyl]-1-methyl-2-propynyl]-N-hydroxyurea or placebo qd for 12 weeks. Baseline assessments were performed at the start of treatment and these baseline results were compared with repeat assessments during various follow-up periods during the treatment study. A subset of 93 patients who had undergone a Multidetector (64 slice coronary) Computerized Tomography (MDCT) examination at baseline continued on study medication for a total of 24 weeks and underwent a repeat scan. For those patients who continued on study medication for a total of 24 weeks, contrast-enhanced CT examination was performed at baseline and after 24 weeks of treatment with a 64-slice scanner (GE LightSpeed VCT; GE Healthcare, USA). Target plaque lesions were defined prospectively as non-calcified plaque with measurable low-density components of <60 HU situated in the proximal or middle portion of either the left main, left anterior ascending, left circumflex or right coronary artery causing at least 20% luminal stenosis. Prior to analysis of results, patients had their MDCT examinations evaluated twice by the same reviewer and also by a second reviewer for evaluation of intraobserver and interobserver variability of measurements.

[4] = 12-week main population, 25 mg qd oral
[5] = 12-week main population, 50 mg qd oral
[6] = 12-week main population, 100 mg qd oral
[7] = 24-week CT substudy population, 25 mg qd oral
[8] = 24-week CT substudy population, 50 mg qd oral
[9] = 24-week CT substudy population, 100 mg qd oral

CC(C#Cc1ccc(Cc2ccc(F)cc2)s1)N(O)C(N)=O (stereo not shown) [VIA-2291, N-[3-[5-[(4-fluorophenyl)methyl]-2-thienyl]-1-methyl-2-propynyl]-N-hydroxyurea]
patients with approximately 80% inhibition of ex vivo LTB4 (leukotriene B4 (LTB4); 100-mg group): > 90 % of patients
inhibition of ex vivo LTB4 (leukotriene B4 (LTB4); 100-mg group, ACS patients): approximately 80%
effect on ex vivo leukotriene LTB4 (leukotriene B4 (LTB4); all doses (25, 50, 100 mg qd), P<0.0001, dose-dependent): significantly reduced
reduction of ex vivo LTB4 (LTB4): approximately 90%
expression of inflammatory genes IL-6, IL 8, IL-10, MMP9, I-kappa-B, osteopontin [1]: reduction in expression
reduction of urine LTE4 (LTE4): 65%
reduction of relative necrotic core thickness [2]: 21%
reduction of hsCRP (hsCRP): 2.0 mg/L
effect on urinary leukotriene LTE4 (leukotriene E4 (LTE4)): significantly reduced
change in hsCRP within group between 12 and 24 weeks ([3]; 100 mg group (P<0.01)): significant reduction
hsCRP at 12 weeks, Median (25-75) ([3]; 12-week main population, 25 mg qd oral (n = 44)): 1.1 (0.6, 2.5)
hsCRP at 12 weeks, Median (25-75) ([3]; 12-week main population, 50 mg qd oral (n = 38)): 1.3 (0.4, 2.7)
hsCRP at 12 weeks, Median (25-75) ([3]; 12-week main population, 100 mg qd oral (n = 38)): 0.6 (0.3, 2.5)
hsCRP change from baseline, LSMEANS geometric mean (%) [3, 4]: −25.32%
hsCRP change from baseline, Median (25-75) [3, 4]: −0.2 (−1.1, 0.4)
hsCRP change from baseline, LSMEANS geometric mean (%) [3, 5]: −29.13%
hsCRP change from baseline, Median (25-75) [3, 5]: −0.1 (−1.9, 0.1)
hsCRP change from baseline, LSMEANS geometric mean (%) [3, 6]: −38.99%
hsCRP change from baseline, Median (25-75) [3, 6]: −0.3 (−0.8, 0.1)
hsCRP 12 weeks change from baseline, LSMEANS geometric mean (%) [3, 7]: −24.82%
hsCRP 12 weeks change from baseline, Median (25-75) [3, 7]: −0.1 (−1.5, 0.8)
hsCRP 24 weeks change from baseline, LSMEANS geometric mean (%) [3, 7]: −32.91%
hsCRP 24 weeks change from baseline, Median (25-75) [3, 7]: −0.4 (−1.2, 0.3)
hsCRP at 24 weeks, Median (25-75) [3, 7]: 1.2 (0.7, 2.1)
hsCRP at 12 weeks, Median (25-75) ([3]; 24-week CT substudy population, 25 mg qd oral (n = 23)): 1.1 (0.6, 2.4)
hsCRP 12 weeks change from baseline, LSMEANS geometric mean (%) [3, 8]: −22.71%
hsCRP 12 weeks change from baseline, Median (25-75) [3, 8]: −0.1 (−5.0, 0.6)
hsCRP 24 weeks change from baseline, LSMEANS geometric mean (%) [3, 8]: −27.05%
hsCRP 24 weeks change from baseline, Median (25-75) [3, 8]: −0.2 (−3.7, 0.2)
hsCRP at 24 weeks, Median (25-75) [3, 8]: 1.5 (0.6, 2.6)
hsCRP at 12 weeks, Median (25-75) ([3]; 24-week CT substudy population, 50 mg qd oral (n = 20)): 1.7 (0.4, 4.3)
hsCRP 12 weeks change from baseline, LSMEANS geometric mean (%) [3, 9]: −39.05%
hsCRP 12 weeks change from baseline, Median (25-75) [3, 9]: −0.3 (−2.4, 0.1)
hsCRP 24 weeks change from baseline, LSMEANS geometric mean (%) [3, 9]: −67.16%
hsCRP 24 weeks change from baseline, Median (25-75) [3, 9]: −0.4 (−3.9, −0.2)
hsCRP at 24 weeks, Median (25-75) [3, 9]: 0.3 (0.2, 0.9)
hsCRP at 12 weeks, Median (25-75) ([3]; 24-week CT substudy population, 100 mg qd oral (n = 18)): 0.6 (0.4, 2.0)
decrease in hsCRP ([3]; 100-mg group at 24 weeks, compared with placebo (P=0.0002)): 67%
effect on new plaque lesions in serial MDCT images (non-calcified plaque): reduced
effect on non-calcified plaque volume in serial MDCT images (non-calcified plaque): reduced
